Source: patent US20040204493A1, “Carbonic anhydrase inhibitors as drugs to eradicate Helicobacter pylori in the mammalian, including human, stomach” (priority 2003, published 2004)
Where two headings read alike, the source gives them in different places.

Tests used:
H. pylori [1] = experiment: Survival of wildtype H. pylori in acid, in vitro; format: cell-based, Helicobacter pylori
Description: (§1) H. pylori bacteria which could not produce α-carbonic anhydrase gene (deletion mutants) were unable to survive in acid and were incapable of raising their periplasmic pH even with wildtype urease activity levels. […] This is illustrated in FIG. 1 of the appended drawings.
Therefore, it is now understood in accordance with the present invention that it is the combination of urease activation, expression of UreI and the periplasmic carbonic anhydrase that allows gastric colonization by H. pylori. […] Thus, targeting the acid biology of this pathogen provides specific H. pylori therapy. It is recognized in accordance with the present invention that within these three targets, a safe drug is only available for carbonic anhydrase.

[2] = test system: basal acid secretion and stimulated acid secretion; settings: humans, cited from earlier work
H. pylori [3] = experiment: Periplasmic pH buffering of H. pylori in acid with urea, fluorescent pH sensitive dye BCECF (FIG. 1); format: cell-based, Helicobacter pylori
Protocol: as §1
Specifically, H. pylori was incubated in acid along with a fluorescent pH sensitive dye, BCECF, (bis-carboxy ethylcarboxy fluorescein) and then urea was added at 5 mM which is substantially the gastric juice concentration. In part A of the figure the increase in periplasmic pH is shown by the increased fluorescence of the dye indicating viable H. pylori bacteria.

urease = target: T1, urease (Helicobacter pylori, UniProt P69996); experiment: Urease activity of H. pylori under in vitro treatment; format: cell-based; settings: wildtype H. pylori
T1 construct: endogenous in cells
T1 sequence (P69996 whole entry): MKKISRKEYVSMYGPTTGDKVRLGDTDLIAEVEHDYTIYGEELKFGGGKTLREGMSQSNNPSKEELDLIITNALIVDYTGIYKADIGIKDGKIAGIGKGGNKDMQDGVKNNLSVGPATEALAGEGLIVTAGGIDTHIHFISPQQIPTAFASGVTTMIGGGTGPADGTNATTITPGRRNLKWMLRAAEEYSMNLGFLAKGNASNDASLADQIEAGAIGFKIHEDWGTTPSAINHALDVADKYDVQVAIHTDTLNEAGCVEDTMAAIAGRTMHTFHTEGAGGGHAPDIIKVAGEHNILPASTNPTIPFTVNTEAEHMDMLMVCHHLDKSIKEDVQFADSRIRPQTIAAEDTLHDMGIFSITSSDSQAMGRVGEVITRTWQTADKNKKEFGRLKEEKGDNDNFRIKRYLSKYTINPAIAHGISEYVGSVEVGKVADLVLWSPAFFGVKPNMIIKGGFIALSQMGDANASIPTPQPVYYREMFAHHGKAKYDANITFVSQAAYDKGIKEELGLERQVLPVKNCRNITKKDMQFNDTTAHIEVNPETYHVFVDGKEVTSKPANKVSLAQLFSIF
T1 sequence (P14916 whole entry, further chain): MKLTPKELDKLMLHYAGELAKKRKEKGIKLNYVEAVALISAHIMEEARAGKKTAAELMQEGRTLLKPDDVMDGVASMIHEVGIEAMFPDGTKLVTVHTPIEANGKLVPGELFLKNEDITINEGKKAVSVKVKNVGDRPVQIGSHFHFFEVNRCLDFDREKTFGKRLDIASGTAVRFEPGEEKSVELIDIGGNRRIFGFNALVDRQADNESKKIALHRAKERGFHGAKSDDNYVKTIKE
Description: as §1

[4] = cited from earlier work

CC(=O)Nc1nnc(S(N)(=O)=O)s1 [acetazolamide]
loss of survival of H. pylori in acid (H. pylori [1]; in acid, drug present): > 3 log order of magnitude | bacterial ability to survive in acid (H. pylori [1]; wildtype H. pylori, in vitro treatment): inhibited the bacterial ability to survive in acid | reduction of histamine stimulated acid secretion (MAO) ([2]; histamine stimulated): 83.2% | reduction of basal acid output (BAO) [2]: 92.3% | return of normal acid secretion following cessation of treatment [2]: 3-5 | time of treatment to maximal acid inhibition [2]: 3 to 5 days | periplasmic buffering of pH (BCECF fluorescence) (H. pylori [3]; normal H. pylori in acid, urea 5 mM, drug added to the medium, FIG. 1 part C): no periplasmic buffering of pH detected | bacterial ability to buffer its periplasm (H. pylori [3]; wildtype H. pylori in acid, in vitro treatment): inhibited | effect on urease activity (urease): without affecting urease activity | relapse rate ([4]; 2 years after treatment, treated for 30 days (Valean et al.)): 6.2% | relapse rate ([4]; 3 week treatment, ulcer healing (Erdei et al.)): 11% | patients with intragastric pain abolished ([4]; 118 gastric ulcer patients, oral, after 3-5 days): 94% | patients with complete ulcer healing (endoscopic evaluation) ([4]; after 15 days of treatment): 87% | patients with complete ulcer healing (endoscopic evaluation) ([4]; after 30 days of treatment): 94%
